Results reported in PubChem BioAssay AID588384 (NMMLSC, 2011).
pEC50: −log10 of the molar value. The source made the active and inactive calls.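 How the source made its calls: active means half-maximal concentration at most 10 µM and% response shifting at least 30 points across doses; inactive means the rest.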

The compounds below were run against Cell division control protein 42 homolog (Homo sapiens) (UniProt P60953) (assay: constitutively active Cdc42 guanine nucleotide binding blockers – biochemical, activated mutant, bead multiplex, flow cytometry, round 1, selectivity assay for Rab7 inhibitor project, SAR follow-up (AID 588384)). Conditions: GST-Cdc42 act beads, fluorescent GTP binding.
Sequence of Cell division control protein 42 homolog (Homo sapiens) (P60953 whole entry, looked up): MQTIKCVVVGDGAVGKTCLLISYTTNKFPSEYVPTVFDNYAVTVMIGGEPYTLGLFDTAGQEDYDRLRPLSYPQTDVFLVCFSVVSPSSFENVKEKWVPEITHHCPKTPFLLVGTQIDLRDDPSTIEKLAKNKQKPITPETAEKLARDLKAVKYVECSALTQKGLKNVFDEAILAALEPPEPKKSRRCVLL

| pEC50 | Structure (SMILES) |
| --- | --- |
| 5.25 | CC1(C)Cc2c(sc(NC(=S)NC(=O)c3cccc(Br)c3)c2C(=O)O)CO1 |
| 7.27 | CC1(C)Cc2c(sc(NC(=S)NC(=O)c3ccccc3Br)c2C(=O)O)CO1 |
| 6.54 | CC1(C)Cc2c(sc(NC(=S)NC(=O)c3ccc(Br)cc3)c2C(=O)O)CO1 |
| 6.33 | CC1(C)Cc2c(sc(NC(=O)NC(=O)c3ccccc3)c2C(=O)O)CO1 |
| 7.27 | COc1cccc(C(=O)NC(=S)Nc2sc3c(c2C(=O)O)CC(C)(C)OC3)c1 |
| 6.69 | COc1ccc(C(=O)NC(=S)Nc2sc3c(c2C(=O)O)CC(C)(C)OC3)cc1 |
| 6.97 | CC1(C)CCc2sc(NC(=S)NC(=O)c3ccccc3)c(C(=O)O)c2C1 |
| 7.05 | CC1Cc2c(sc(NC(=S)NC(=O)c3ccccc3)c2C(=O)O)CO1 (stereo unspecified) |
| 6.49 | CC1(C)Cc2c(sc(NC(=S)NC(=O)c3cccc(F)c3)c2C(=O)O)CO1 |
| 7.29 | CC1(C)Cc2c(sc(NC(=S)NC(=O)c3ccccc3F)c2C(=O)O)CO1 |
| 7.36 | O=C(NC(=S)Nc1sc2c(c1C(=O)O)CCOC2)c1ccccc1 |

Same assay, conditions: GST-Cdc42 act beads, fluorescent GTP binding, at 100 µM (top of the series)

| Structure (SMILES) | % response (lower = inhibition) |
| --- | --- |
| Cc1ccc(Nc2nc3sc4c(c3c(=O)o2)CCN(C)C4)cc1 | inactive |
| CN1CCc2c(sc(NC(=O)Nc3ccc(F)cc3)c2C(=O)O)C1 | inactive |
| CCOC(=O)c1c(N)sc2ccccc12 | inactive |
| COC(=O)c1c(N)sc2c1CC(C)(C)OC2 | inactive |
| Cc1ccc(NC(=O)Nc2sc3c(c2C(=O)O)CCN(C)C3)cc1 | inactive |
| CCOC(=O)c1c(NC(=S)NC(=O)c2ccccc2)sc2ccccc12 | inactive |
| CCOC(=O)c1c(NC(=O)Nc2ccc(C)cc2)sc2c1CCN(C)C2 | inactive |
| CC(C)(C)OC(=O)c1c(NC(=S)NC(=O)c2ccccc2)sc2c1CCOC2 | inactive |
| CN1CCc2c(sc3nc(Nc4ccc(F)cc4)oc(=O)c23)C1 | inactive |
| CCOC(=O)c1c(NC(=O)Nc2ccc(F)cc2)sc2c1CCN(C)C2 | inactive |
| CCOC(=O)c1c(NC(=O)NC(C)(C)C)sc2c1CCN(C)C2 | inactive |

More lines, now with the values ahead:

| % response (lower = inhibition) | Structure (SMILES) |
| --- | --- |
| inactive | CC1(C)Cc2c(sc(NC(=S)Nc3ccccc3)c2C(=O)O)CO1 |
| inactive | CCOC(=O)c1c(NC(=S)Nc2ccccc2)sc2c1CC(C)(C)OC2 |
| inactive | COC(=O)c1c(NC(=S)NC(=O)c2ccccc2)sc2c1CC(C)(C)OC2 |
| inactive | CC1(C)Cc2c(sc(NC(=O)Cc3ccccc3)c2C(=O)O)CO1 |
